The source of these data is patent US20180296532A1, “RNA-Focused Small Molecules for Inhibiting RNA Toxicity in Myotonic Dystrophy” (The Scripps Research Institute, priority 2015, published 2018).

In this test the test system is DMPK mRNA. Put plainly: Effect of 2GN8 on DMPK mRNA abundance in DM1 patient derived fibroblasts by qRT-PCR. It is filed as cell-based. Particulars: patient derived fibroblasts with 500 CUG repeats; bioactive concentrations. Here is the method:
Evaluation of the effect of 2GN8 on the abundance of DMPK mRNA was assessed using patient derived fibroblasts with 500 CUG repeats.
The effect of 2GN8 on the abundance of DMPK mRNA was assessed using DM1 patient derived fibroblasts containing 500 CTG repeats (GM03987). Cells were grown as monolayers in 6 well plates in growth medium (1×EMEM (Lonza), 10% FBS, 1× glutagro (Corning), 1×MEM non-essential amino acids (Corning) and 1× antibiotic/antimycotic (Corning)). Once cells were ˜80% confluent, they were treated with growth medium containing the 2GN8 (300, 200 and 100 μM). After 48 h the cells were lysed and the total RNA was harvested using Trizol reagent (Life Technologies). Approximately 100 ng of RNA was used for RT qScript cDNA synthesis kit (Quanta BioSciences). 30% of the RT reaction was used for real time PCR (qPCR) with SYBR green master mix (Life Technologies) performed on a 7900HT Fast Real-Time PCR System (Applied Biosystems). The PCR primers for DMPK mRNA were 5′-CGTGCAAGCGCCCAG (forward) and 5′-[…] (reverse). The PCR primers for 18S ribosomal RNA were 5′-[…] (forward) and 5′-[…] (reverse).

As for `N=C(N)Nc1ccc2nc(-c3ccc(-c4nc5ccc(NC(=N)N)cc5[nH]4)cc3)[nH]c2c1` [Compound 2GN8], the “effect on abundance of DMPK mRNA” value is listed as “did not have any effect”.
